Earlier results, collected in PMC9851200, “Multiparameter phenotypic screening for endogenous TFEB and TFE3 translocation identifies novel chemical series modulating lysosome function” (Autophagy, 2022).

What was measured:
Parameters in all cases: method as in original PKIS2 published data
[1] = target: kinases (KINOMEscan panel) (Homo sapiens, UniProt P22607); details: FGFR3; Published KINOMEscan; ref original PKIS2 published data; cited from earlier work
[2] = target: T1, kinases (KINOMEscan panel) (Homo sapiens, UniProt P25098); details: Published KINOMEscan; ref original PKIS2 published data; cited from earlier work
T1 sequence (P25098 1-689): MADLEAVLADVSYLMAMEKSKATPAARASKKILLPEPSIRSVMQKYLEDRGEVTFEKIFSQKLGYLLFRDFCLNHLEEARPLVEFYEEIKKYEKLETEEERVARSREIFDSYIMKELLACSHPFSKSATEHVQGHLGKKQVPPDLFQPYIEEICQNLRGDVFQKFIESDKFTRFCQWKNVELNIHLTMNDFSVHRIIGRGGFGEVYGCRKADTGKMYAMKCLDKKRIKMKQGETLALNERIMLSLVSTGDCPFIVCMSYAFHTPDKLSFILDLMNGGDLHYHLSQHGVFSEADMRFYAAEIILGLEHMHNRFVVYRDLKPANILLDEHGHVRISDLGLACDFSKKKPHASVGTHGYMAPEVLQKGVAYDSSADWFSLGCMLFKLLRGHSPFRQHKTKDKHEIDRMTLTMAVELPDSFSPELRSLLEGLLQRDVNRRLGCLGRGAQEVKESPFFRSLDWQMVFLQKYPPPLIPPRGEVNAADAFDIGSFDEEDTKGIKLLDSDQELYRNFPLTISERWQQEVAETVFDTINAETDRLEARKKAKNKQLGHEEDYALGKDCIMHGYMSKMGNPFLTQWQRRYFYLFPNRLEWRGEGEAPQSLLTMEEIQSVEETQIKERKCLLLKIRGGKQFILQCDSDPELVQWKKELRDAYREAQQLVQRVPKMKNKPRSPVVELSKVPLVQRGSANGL

[3] = target: T2, kinases (KINOMEscan panel) (Homo sapiens, UniProt P51817); details: kinase PRKX; Published KINOMEscan; ref original PKIS2 published data; cited from earlier work
T2 sequence (P51817 1-358): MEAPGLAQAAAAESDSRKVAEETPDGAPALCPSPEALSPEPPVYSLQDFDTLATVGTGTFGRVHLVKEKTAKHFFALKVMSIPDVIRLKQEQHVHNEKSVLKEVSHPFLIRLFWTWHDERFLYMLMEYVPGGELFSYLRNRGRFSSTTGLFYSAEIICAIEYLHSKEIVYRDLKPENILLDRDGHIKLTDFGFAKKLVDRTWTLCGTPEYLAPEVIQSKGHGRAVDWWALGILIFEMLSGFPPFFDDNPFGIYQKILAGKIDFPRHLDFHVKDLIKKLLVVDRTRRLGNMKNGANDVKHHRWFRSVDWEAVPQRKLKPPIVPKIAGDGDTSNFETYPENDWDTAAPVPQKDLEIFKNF

[4] = target: T3, kinases (KINOMEscan panel) (Homo sapiens, UniProt Q16832); details: DDR2; Published KINOMEscan; ref original PKIS2 published data; cited from earlier work
T3 sequence (Q16832 22-855): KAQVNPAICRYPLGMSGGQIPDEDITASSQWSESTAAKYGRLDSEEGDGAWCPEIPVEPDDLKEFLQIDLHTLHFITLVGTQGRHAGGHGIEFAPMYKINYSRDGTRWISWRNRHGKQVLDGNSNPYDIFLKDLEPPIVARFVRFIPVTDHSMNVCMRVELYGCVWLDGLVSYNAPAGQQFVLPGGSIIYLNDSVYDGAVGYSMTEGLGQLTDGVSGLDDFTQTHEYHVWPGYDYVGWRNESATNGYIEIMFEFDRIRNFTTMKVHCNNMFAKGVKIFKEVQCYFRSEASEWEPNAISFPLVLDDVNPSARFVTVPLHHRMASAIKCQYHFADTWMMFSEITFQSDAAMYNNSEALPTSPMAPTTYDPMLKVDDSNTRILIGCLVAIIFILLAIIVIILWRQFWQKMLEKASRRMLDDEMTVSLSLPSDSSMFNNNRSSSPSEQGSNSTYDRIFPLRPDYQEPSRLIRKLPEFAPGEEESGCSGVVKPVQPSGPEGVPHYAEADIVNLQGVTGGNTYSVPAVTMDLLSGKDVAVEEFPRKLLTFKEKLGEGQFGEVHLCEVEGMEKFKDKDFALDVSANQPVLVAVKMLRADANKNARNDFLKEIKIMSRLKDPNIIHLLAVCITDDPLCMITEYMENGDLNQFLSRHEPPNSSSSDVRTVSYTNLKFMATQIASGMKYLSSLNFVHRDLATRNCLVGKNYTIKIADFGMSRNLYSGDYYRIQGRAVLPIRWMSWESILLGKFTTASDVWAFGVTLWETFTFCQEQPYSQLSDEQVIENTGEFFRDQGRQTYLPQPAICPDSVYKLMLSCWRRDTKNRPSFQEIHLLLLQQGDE

[5] = target: kinases (KINOMEscan panel) (Homo sapiens, UniProt Q8TDX7); details: NEK7; Published KINOMEscan; ref original PKIS2 published data; cited from earlier work
[6] = target: T4, kinases (KINOMEscan panel) (Homo sapiens, UniProt Q9BRS2); details: RIOK1; Published KINOMEscan; ref original PKIS2 published data; cited from earlier work
T4 sequence (Q9BRS2 1-568): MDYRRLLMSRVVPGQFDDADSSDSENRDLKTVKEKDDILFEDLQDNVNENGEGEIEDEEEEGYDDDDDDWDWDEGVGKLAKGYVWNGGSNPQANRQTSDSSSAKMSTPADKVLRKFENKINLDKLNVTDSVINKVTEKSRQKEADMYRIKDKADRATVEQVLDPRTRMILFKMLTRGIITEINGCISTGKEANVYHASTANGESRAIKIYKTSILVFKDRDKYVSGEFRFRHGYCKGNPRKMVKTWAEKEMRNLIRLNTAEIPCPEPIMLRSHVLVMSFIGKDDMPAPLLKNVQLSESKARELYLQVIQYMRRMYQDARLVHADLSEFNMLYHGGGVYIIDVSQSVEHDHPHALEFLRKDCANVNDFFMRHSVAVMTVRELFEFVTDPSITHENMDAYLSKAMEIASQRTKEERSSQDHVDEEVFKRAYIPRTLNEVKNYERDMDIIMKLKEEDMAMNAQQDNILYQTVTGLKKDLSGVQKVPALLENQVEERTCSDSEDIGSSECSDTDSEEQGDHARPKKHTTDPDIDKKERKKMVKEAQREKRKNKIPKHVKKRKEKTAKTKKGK

kinases (KINOMEscan panel) (Homo sapiens, UniProt P22607), sequence (P22607 23-806): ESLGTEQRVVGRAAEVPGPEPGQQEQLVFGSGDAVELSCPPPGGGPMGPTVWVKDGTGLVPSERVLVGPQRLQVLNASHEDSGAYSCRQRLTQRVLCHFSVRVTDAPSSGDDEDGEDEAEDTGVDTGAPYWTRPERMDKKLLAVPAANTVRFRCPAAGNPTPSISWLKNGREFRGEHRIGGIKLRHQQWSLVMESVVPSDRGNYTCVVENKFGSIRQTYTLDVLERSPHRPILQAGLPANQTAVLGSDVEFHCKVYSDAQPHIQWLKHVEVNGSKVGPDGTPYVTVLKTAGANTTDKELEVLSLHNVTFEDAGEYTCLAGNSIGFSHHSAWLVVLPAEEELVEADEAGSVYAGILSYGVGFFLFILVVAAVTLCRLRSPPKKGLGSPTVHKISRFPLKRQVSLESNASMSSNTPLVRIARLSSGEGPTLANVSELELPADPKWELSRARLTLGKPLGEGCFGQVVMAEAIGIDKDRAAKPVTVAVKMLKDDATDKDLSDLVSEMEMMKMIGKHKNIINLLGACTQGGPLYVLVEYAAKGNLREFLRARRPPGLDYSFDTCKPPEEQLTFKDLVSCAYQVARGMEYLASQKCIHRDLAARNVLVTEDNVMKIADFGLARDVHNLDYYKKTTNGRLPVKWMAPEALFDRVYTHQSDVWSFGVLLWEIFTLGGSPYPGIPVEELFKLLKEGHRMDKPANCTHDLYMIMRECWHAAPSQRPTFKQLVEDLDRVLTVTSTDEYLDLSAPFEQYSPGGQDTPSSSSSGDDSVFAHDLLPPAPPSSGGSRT
kinases (KINOMEscan panel) (Homo sapiens, UniProt Q8TDX7), sequence (Q8TDX7 whole entry): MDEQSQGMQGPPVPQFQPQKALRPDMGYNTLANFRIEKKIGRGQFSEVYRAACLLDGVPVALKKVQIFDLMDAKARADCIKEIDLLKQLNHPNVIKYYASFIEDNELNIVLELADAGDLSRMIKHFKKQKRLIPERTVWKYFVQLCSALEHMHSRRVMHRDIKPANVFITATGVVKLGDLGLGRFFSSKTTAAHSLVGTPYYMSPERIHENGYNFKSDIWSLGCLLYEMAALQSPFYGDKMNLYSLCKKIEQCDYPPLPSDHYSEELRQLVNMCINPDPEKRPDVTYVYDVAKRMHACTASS

In the case of Cc1cccc(-c2nc(Nc3ccncc3)c3ccccc3n2)n1 [NK215], the “KINOMEscan FGFR3” value [1] is listed as 2, the “KINOMEscan GRK2” value [2] is listed as 0 and the “KINOMEscan PRKX” value [3] is listed as 0. For the same compound, the “KINOMEscan DDR2” value [4] was 45, the “KINOMEscan NEK7” value [5] was 0 and the “KINOMEscan RIOK1” value [6] was 0.
